Measured values reported in patent publication EP4803519A1, “NOVEL PRMT5 INHIBITOR AND USE THEREOF” (Shanghai Apeiron Therapeutics Company Limited, priority 2023, dated 2025).

Assays:
Type in all cases: cell-based
[1] = system: LU99 MTAP overexpressing cells; assay: Inhibitory activity on proliferation of LU99 MTAP overexpressing cells (Cell-Titer Glo); details: Homo sapiens, Lu-99, 144 h, incubated 6 d, 0-10,000 nM
Experimental: (§1) Materials and cells: LU99 MTAP overexpressing cell line was purchased from Kyinno Biotechnology (China); cell culture medium and fetal bovine serum were purchased from Thermo Fisher Scientific (USA); 384-well plates were purchased from PerkinElmer (USA); Cell-Titer Glo kits were purchased from Promega (USA).
Cell culture: LU99 MTAP overexpressing cells were cultured with medium containing 10% fetal bovine serum at 37°C in 5% carbon dioxide. Only cells in the logarithmic growth phase could be used for the test.
(§2) Test of inhibitory activity on cell proliferation: The Cell-Titer Glo kit was used to test the proliferation inhibitory activity of the compounds on LU99 MTAP overexpressing cells. The cell concentration was adjusted, rendering that cells were inoculated into a 384-well plate at 40 µL per well and incubated overnight at 37°C and 5% carbon dioxide. 40 nL of the compound was added to each well to reach a final concentration of 0-10,000 nM (starting concentration 10,000 nM, 2.5-fold dilution, 10 points), and the cell plate with 0.2% DMSO content was incubated at 37°C and 5% carbon dioxide for 6 d. 40 µL of Cell-Titer Glo reagent was added to test cell viability.

[2] = system: HCT-116 MTAP(-/-)deleted cells; assay: Inhibitory activity on proliferation of HCT-116 MTAP(-/-)deleted cells (Cell-Titer Glo); details: Homo sapiens, 144 h, incubated 6 d, 0-1,000 nM
Experimental: (§3) Materials and cells: HCT-116 MTAP(-/-)deleted cells were purchased from Kyinno Biotechnology (China); RPMI-1640 medium, and fetal bovine serum were purchased from Thermo Fisher (United States); 384-well plates were purchased from PerkinElmer (United States); Cell-Titer Glo kit was purchased from Promega (United States).
Cell culture: HCT116 MTAP(-/-)deleted cells were cultured with RPMI 1640 medium containing 10% fetal bovine serum at 37°C in 5% carbon dioxide. Only cells in the logarithmic growth phase could be used for the test.
(§4) Test of inhibitory activity on cell proliferation: The Cell-Titer Glo kit was used to test the proliferation inhibitory activity of the compounds on HCT-116 MTAP(-/-)deleted cells. The cell concentration was adjusted, rendering that cells were inoculated into a 384-well plate at 40 µL per well and incubated overnight at 37°C and 5% carbon dioxide. 80 nL of the compound was added into each well to reach a final concentration of 0-1,000 nM (starting concentration 1,000 nM, 2.5-fold dilution, 10 points), and the cell plate with 0.2% DMSO content was incubated at 37°C and 5% carbon dioxide for 6 d. 40 µL of Cell-Titer Glo reagent was added to test cell viability.

HCT-116 wild-type cells = assay: Inhibitory activity on proliferation of HCT-116 wild-type cells (Cell-Titer Glo); details: Homo sapiens, 144 h, incubated 6 d, 0-10,000 nM
Experimental: as §3, with “wild-type” for “MTAP(-/-)deleted”
Cell culture: HCT-116 wild-type cells were cultured in RPMI-1640 medium containing 10% fetal bovine serum at 37°C and 5% carbon dioxide. Only cells in the logarithmic growth phase could be used for the test.
as §2, with “of” for “of inhibitory activity on”, “cell proliferation activity:” for “cell proliferation: The”, “the compound” for “the compounds”, “on HCT-116 wild-type” for “on LU99 MTAP overexpressing”, “dioxide. 80” for “dioxide. 40”

[3] = system: LU99 MTAP(-/-)deleted cells; assay: Inhibitory activity on proliferation of LU99 MTAP(-/-)deleted cells (Cell-Titer Glo); details: Homo sapiens, Lu-99, 144 h, incubated 6 d, 0-1,000 nM
Experimental: as §1, with “deleted” for “overexpressing”
Cell culture: LU99 MTAP(-/-)deleted cells were cultured with medium containing 10% fetal bovine serum at 37°C in 5% carbon dioxide. Only cells in the logarithmic growth phase could be used for the test.
as §4, with “on LU99” for “on HCT-116”, “dioxide. 40” for “dioxide. 80”, “added to” for “added into”

SMILES | IC50 [1] [nM] | IC50 [2] [nM] | IC50 (HCT-116 wild-type cells) [nM] | IC50 [3] [nM]
CN(C(=O)c1ccc2nc(N)c3cnn(C)c3c2c1)[C@@H]1COC(C)(C)c2cc(N3CC4(COC4)C3)ccc21 [Example 49, (S)-4-amino-N-(1,1-dimethyl-7-(2-oxa-6-azaspiro[3.3]heptan-6-yl)isochroman-4-yl)-N,1-dimethyl-1H-pyrazolo[4,3-c]quinoline-8-carboxamide] | 5890 | 7.9 | 3850 | 19.2
CN(C(=O)c1ccc2nc(N)c3ncncc3c2c1)[C@@H]1COC(C)(C)c2cc(C(F)(F)F)ccc21 [Example 36, N-[(4S)-1,1-dimethyl-7-(trifluoromethyl)isochroman-4-yl](5-aminopyrimido[4,5-c]quinolin-9-yl)-N-methylformamide] | 668 | 95.1 | 2840 | 116
CN(C(=O)c1ccc2nc(N)c3cnn(C)c3c2c1)[C@H]1COC(C)(C)c2cc(C(F)(F)F)ccc21 [Example 17, (R)-4-amino-N-(1,1-dimethyl-7-(trifluoromethyl)isochroman-4-yl)-N,1-dimethyl-1H-pyrazolo[4,3-c]quinoline-8-carboxamide] | 5220 | 140 | 5550 | 174
CN(C(=O)c1cc2c(cc1F)nc(N)c1cnn(C)c12)C1COC(C)(C)c2cc(C(F)(F)F)ccc21 (stereo not drawn) [Example 15, 4-Amino-N-(1,1-dimethyl-7-(trifluoromethyl)isochroman-4-yl)-7-fluoro-N,1-dimethyl-1H-pyrazolo[4,3-c]quinoline-8-carboxamide] | 795 | 13.6 | 446 | 25.9
CN(C(=O)c1ccc2nc(N)c3cnn(C)c3c2c1)[C@@H]1COC2(CCC2)c2cc(C(F)(F)F)ncc21 [Example 84, N-[(4S)-7-(trifluoromethyl)spiro[1,4-dihydro-3H-pyrano[4,5-c]pyridine-1,1'-cyclobutan]-4-yl](4-amino-1-methylpyrazolo[4,5-c]quinolin-8-yl)-N-methylformamide] | 1640 | 6.7 | 1370 | 10
CN(C(=O)c1ccc2nc(N)c3c(c2c1)COC3)C1COC(C)(C)c2cc(C(F)(F)F)ccc21 (stereo not drawn) [Example 8, 4-Amino-N-(1,1-dimethyl-7-(trifluoromethyl)isochroman-4-yl)-N-methyl-2,3-dihydrofuro[3,4-c]quinoline-8-carboxamide] | 3250 | 16 | 3510 | 25.2
CN(C(=O)c1ccc2nc(N)c3cnn(C)c3c2c1)C1COC(C)(C)c2cc(-c3cnn(C)c3)ccc21 (stereo not drawn) [Example 7, 4-amino-N-(1,1-dimethyl-7-(1-methyl-1H-pyrazol-4-yl)isochroman-4-yl)-N,1-dimethyl-1H-pyrazolo[4,3-c]quinoline-8-carboxamide] | 3100 | 5 | 2520 | 3.6
CC1OCc2c1c(N)nc1ccc(C(=O)N(C)C3COC(C)(C)c4cc(C(F)(F)F)ccc43)cc21 (stereo not drawn) [Example 12, 4-Amino-N-(1,1-dimethyl-7-(trifluoromethyl)isochroman-4-yl)-N,3-dimethyl-1,3-dihydrofuro[3,4-c]quinoline-8-carboxamide] | 1990 | 21.2 | 2610 | 32.3
CN(C(=O)c1cc2c3c(c(N)nc2cn1)COC3)[C@@H]1COC2(CCC2)c2cc(C(F)(F)F)ccc21 [Example 44, (S)-4-amino-N-methyl-N-(7'-(trifluoromethyl)spiro[cyclobutane-1,1'-isochroman]-4'-yl)-1,3-dihydrofuro[3,4-c][1,7]naphthyridine-8-carboxamide] | 673 | 7.9 | 837 | 12.2
CN(C(=O)c1cc2c3c(c(N)nc2cn1)COC3)C1COC2(CC2)c2cc(C(F)(F)F)ccc21 (stereo not drawn) [Example 40, 4-Amino-N-methyl-N-(7'-(trifluoromethyl)spiro[cyclopropane-1,1'-isochroman]-4'-yl)-1,3-dihydrofuro[3,4-c][1,7]naphthyridine-8-carboxamide] | 2040 | 13 | 2200 | 21.2
CN(C(=O)c1cc2c(cn1)nc(N)c1cnn(C)c12)C1COC(C)(C)c2cc(C(F)(F)F)ncc21 (stereo not drawn) [Example 79, 4-Amino-N-(1,1-dimethyl-7-(trifluoromethyl)-3,4-dihydro-1H-pyrano[4,3-c]pyridin-4-yl)-N,1-dimethyl-1H-pyrazolo[4,3-c][1,7]naphthyridine-8-carboxamide] | 4380 |  |  | 41.9
CN(C(=O)c1ccc2nc(N)c3cnn(C)c3c2c1)[C@@H]1COC(C)(C)c2cc(N3CCS(=O)(=O)CC3)ccc21 [Example 78, […]] | 3740 |  |  | 17
CN(C(=O)c1ccc2nc(N)c3cnn(C)c3c2c1)[C@@H]1COC2(CCCC2)c2cc(C(F)(F)F)ccc21 [Example 82, (S)-4-amino-N,1-dimethyl-N-(7'-(trifluoromethyl)spiro[cyclopentane-1,1'-isochroman]-4'-yl)-1H-pyrazolo[4,3-c]quinoline-8-carboxamide] | 523 |  |  | 5.9
CN(C(=O)c1ccc2nc(N)c3nsnc3c2c1)C1COC2(CCC2)c2cc(C(F)(F)F)ccc21 (stereo not drawn) [Example 59, 4-Amino-N-methyl-N-(7'-(trifluoromethyl)spiro[cyclobutane-1,1'-isochroman]-4'-yl)-[1,2,5]thiadiazolo[3,4-c]quinoline-8-carboxamide] | 4020 |  |  | 3140
CN(C(=O)c1ccc2nc(N)c3cnn(C)c3c2c1)[C@@H]1COC(C)(C)c2cc(C3CCOCC3)ccc21 [Example 58, (S)-4-amino-N-(1,1-dimethyl-7-(tetrahydro-2H-pyran-4-yl)isochroman-4-yl)-N,1-dimethyl-1H-pyrazolo[4,3-c]quinoline-8-carboxamide] | 987 |  |  | 5.5
CN(C(=O)c1ccc2nc(N)c3cnn(C)c3c2c1)[C@@H]1COC(C)(C)c2cc(N3CC4CCC(C3)O4)ccc21 [Example 85, N-[(4S)-1,1-dimethyl-7-(8-oxa-3-azabicyclo[3.2.1]octan-3-yl)isochroman-4-yl](4-amino-1-methylpyrazolo[4,5-c]quinolin-8-yl)-N-methylformamide] | 2140 |  |  | 7.1
CN(C(=O)c1ccc2nc(N)c3nsnc3c2c1)C1COC(C)(C)c2cc(C(F)(F)F)ccc21 (stereo not drawn) [Example 60, 4-Amino-N-(1,1-dimethyl-7-(trifluoromethyl)isochroman-4-yl)-N-methyl-[1,2,5]thiadiazolo[3,4-c]quinoline-8-carboxamide] | 2950 |  |  | > 3000
